Data published in patent publication US4766111A, “Lipids with plasmin inhibitory properties” (Trustees of Boston University, priority 1987, dated 1988).
Several values for one entry are separate records, joined by “and”; a condition that tells them apart may be missing. Equal entries are not always repeated.

B1: ACTIVATED PURE PLASMINOGEN: activated pure plasminogen, positive reference in Test 3 (protein, UniProt P00747 20-580; P00747 581-810, looked up)
Plasmin heavy chain A: EPLDDYVNTQGASLFSVTKKQLGAGSIEECAAKCEEDEEFTCRAFQYHSKEQQCVIMAENRKSSIIIRMRDVVLFEKKVYLSECKTGNGKNYRGTMSKTKNGITCQKWSSTSPHRPRFSPATHPSEGLEENYCRNPDNDPQGPWCYTTDPEKRYDYCDILECEEECMHCSGENYDGKISKTMSGLECQAWDSQSPHAHGYIPSKFPNKNLKKNYCRNPDRELRPWCFTTDPNKRWELCDIPRCTTPPPSSGPTYQCLKGTGENYRGNVAVTVSGHTCQHWSAQTPHTHNRTPENFPCKNLDENYCRNPDGKRAPWCHTTNSQVRWEYCKIPSCDSSPVSTEQLAPTAPPELTPVVQDCYHGDGQSYRGTSSTTTTGKKCQSWSSMTPHRHQKTPENYPNAGLTMNYCRNPDADKGPWCFTTDPSVRWEYCNLKKCSGTEASVVAPPPVVLLPDVETPSEEDCMFGNGKGYRGKRATTVTGTPCQDWAAQEPHRHSIFTPETNPRAGLEKNYCRNPDGDVGGPWCYTTNPRKLYDYCDVPQCAAPSFDCGKPQVEPKKCPGR
Plasmin light chain B: VVGGCVAHPHSWPWQVSLRTRFGMHFCGGTLISPEWVLTAAHCLEKSPRPSSYKVILGAHQEVNLEPHVQEIEVSRLFLEPTRKDIALLKLSSPAVITDKVIPACLPSPNYVVADRTECFITGWGETQGTFGAGLLKEAQLPVIENKVCNRYEFLNGRVQSTELCAGHLAGGTDSCQGDSGGPLVCFEKDKYILQGVTSWGLGCARPNKPGVYVRVSRFVTWIEGVMRNN
modifications: Plasmin

Experiments:
Format in all cases: biochemical
[1] = Test 1: plasmin/plasmin-like activity, cleavage of substrate by the sample; conditions: Table 2
Experimental: Each fraction was diluted 1:5 in TRIS buffer (50 mM, pH 7.4, I 0.15), and then mixed with the substrate. […] In Test 2, 30 μl of a 1:40 dilution of normal human plasma were used, and in Test 3, 30 µl of […] of pure plasminogen were used. The results, shown as ΔmA/min, represents the average of five readings.

[2] = system: normal human blood pooled plasma; assay: Test 2: plasminogen activity, sample incubated with normal human pooled plasma; conditions: Table 2
Experimental: Following this, the samples, diluted, were incubated with normal human blood pooled plasma, which had been diluted 1:40 in TRIS buffer, in proportions of 1 part fraction to two parts plasma. These combinations were incubated to determine if the fractions had plasminogen activator properties.
(§1) In Test 2, 30 μl of a 1:40 dilution of normal human plasma were used, and in Test 3, 30 µl of […] of pure plasminogen were used. The results, shown as ΔmA/min, represents the average of five readings.

purified plasminogen = purified plasminogen (Homo sapiens, UniProt P00747); assay: Test 3: plasminogen activatory activity, sample incubated with purified plasminogen
Experimental: In a third test, each fraction was incubated with purified plasminogen so as to enhance activity, because normal human pooled plasma contains plasma proteins inhibitors.
as §1

plasmin = plasmin (Homo sapiens, UniProt P00747); assay: Antiplasmin/plasmin inhibitory activity; conditions: Table 3; for ABSORBANCE: absorbance at 405nm, remaining active plasmin, substrate S-225; for % INHIBITION: by reference to normal human pooled plasma standard curve
Experimental: Fifty-four different runs were conducted, using various compounds and compositions. […] A standard curve is then constructed, by diluting the pooled plasma, and mixing each dilution with a known plasmin standard. Quantity of active plasmin remaining is measured and this quantity is inversely proportional to antiplasmin activity.

[3] = Table I, sample 1:5 dilution, pure plasminogen, average of five readings

Chain of purified plasminogen (P00747 20-810 limits assumed): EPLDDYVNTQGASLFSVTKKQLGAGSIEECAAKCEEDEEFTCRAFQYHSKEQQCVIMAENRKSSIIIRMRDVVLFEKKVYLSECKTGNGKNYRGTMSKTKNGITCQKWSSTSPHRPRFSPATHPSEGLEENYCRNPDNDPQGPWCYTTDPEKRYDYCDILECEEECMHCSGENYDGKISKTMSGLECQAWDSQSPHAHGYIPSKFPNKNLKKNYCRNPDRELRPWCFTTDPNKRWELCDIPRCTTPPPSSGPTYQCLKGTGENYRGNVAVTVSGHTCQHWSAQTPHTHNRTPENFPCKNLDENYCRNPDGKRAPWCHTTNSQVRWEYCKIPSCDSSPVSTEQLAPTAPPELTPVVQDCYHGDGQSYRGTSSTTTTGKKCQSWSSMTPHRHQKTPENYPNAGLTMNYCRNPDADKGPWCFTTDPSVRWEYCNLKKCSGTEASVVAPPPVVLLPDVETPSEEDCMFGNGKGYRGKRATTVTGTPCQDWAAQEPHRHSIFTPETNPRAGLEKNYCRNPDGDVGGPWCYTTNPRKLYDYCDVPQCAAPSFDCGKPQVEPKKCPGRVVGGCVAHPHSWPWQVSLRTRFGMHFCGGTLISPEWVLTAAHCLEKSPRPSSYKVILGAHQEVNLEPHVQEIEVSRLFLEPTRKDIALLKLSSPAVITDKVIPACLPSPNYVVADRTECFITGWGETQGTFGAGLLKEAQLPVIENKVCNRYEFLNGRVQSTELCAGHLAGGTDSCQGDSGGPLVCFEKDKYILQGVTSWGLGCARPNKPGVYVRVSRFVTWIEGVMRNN

Molecule | Plasmin Activity [1] | Plasminogen Activity [2] | Plasminogen Activatory Activity (purified plasminogen; Table 2) | ABSORBANCE (plasmin) | % INHIBITION (plasmin) | Plasminogen Activatory Activity (purified plasminogen; [3])
CERAMIDE GALACTOSIDE [PURIFIED CERAMIDE GALACTOSIDE] | 0 | 0 | 0 | 0.176 and 0.192 |  | 
CERAMIDE TRIHEXOSIDE [PURIFIED CERAMIDE TRIHEXOSIDE] | 0 | 0 | 0 | 0.184 | 0% | 
DIGALACTOSYL DIGLYCERIDE [PURIFIED DIGALACTOSYL DIGLYCERIDE] | 0 | 0 | 0 | 0.190 | 0% | 
PHOSPHATIDYL INOSITOL 4-MONOPHOSPHATE |  |  |  | Turbid |  | 
PHOSPHATIDYL INOSITOL [PURIFIED PHOSPHATIDYL INOSITOL] | 0 | 0 | 0 | 0.187 | 0% | 
PURE PLASMINOGEN: purified plasminogen used in Test 3, tested alone |  |  |  |  |  | 0 ΔmA/min
SPHINGOMYELIN |  |  |  |  | 18% | 
B1 |  |  |  |  |  | 19 ΔmA/min and 18 ΔmA/min
